The record followed here is US20220193241A1, “AGENT TARGETING DOUBLE-MEMBRANE ORGANELLE DNA” (CHIBA-PREFECTURE, priority 2019, published 2022).

The structures appear in SMILES notation.

Holding throughout (format): cell-based
Experiment [1] relates to A549 cells. Kind of experiment: Expression of inflammatory cytokines (SASP) by RT-qPCR. The settings on record: 5 days after treatment. The procedure:
The expression of inflammation-related genes such as inflammatory cytokine genes is increased in senescent cells. It is known that a phenomenon called SASP (senescence-associated secretory phenotype) is thereby induced. In order to study whether this phenomenon was induced in the A549 cells, the cells were recovered 5 days after CCC021-TPP treatment in the same manner as in Example 1, and RNA extraction, RNA reverse-transcription, cDNA synthesis, and RT-qPCR were performed in the same manner as in Example 1 to examine the expression of inflammatory cytokines (IL-1A, IL-1B, IL-6, and IL-8) in the A549 cells and the PC14 cells. The primers used for the amplification of each gene are shown below. For qPCR, amplification was performed under conditions involving a holding stage of 50° C. for 2 min→95° C. for 10 min followed by 40 cycles of a cycling stage each involving 95° C. for 15 sec→60° C. for 1 min using Applied Biosystems(R) 7500 real-time PCR system, and melt curve analysis after amplification was conducted at a melt curve stage of 95° C. for 15 sec→60° C. for 1 min→95° C. for 15 sec→60° C. for 15 sec to confirm reaction specificity from the absence of primer dimer by-products or the like in PCR products.
A general note: Real-time PCR tracks product formation cycle by cycle.

Experiment [2] concerns A549 cells. As to the kind of experiment: Synthetic lethality: cell morphology with CCC021-TPP and ABT-263. To be noted: days 2 and 4. The source says: Since the suppression of cell death in the cellular senescence of the A549 cells was presumably due to the BCL pathway, it was believed that the apoptosis of cells whose cellular senescence was evoked by CCC021-TPP could be induced by combined use with ABT-263 (Cayman Chemical Company) serving as a senolytic drug and a BCL pathway inhibitor. Thus, the possibility of inducing the cell death of senescent cells by CCC021-TPP treatment and combined use with the BCL2/BCL-XL inhibitor ABT-263 was observed under an optical microscope to observe change in cell morphology. Five hundred A549 cells were inoculated to a 96-well plate, cultured for 24 hours, and then observed over time under an optical microscope either without administration or after administration of 20 μM CCC021-TPP and 10 μM ABT-263 each used alone or used concurrently, and cell morphology was photographed on days 2 and 4.

Experiment [3] deals with PC14 cells. Kind of experiment: Long-term cell proliferation, cell numbers counted for 8 days. The settings on record: 20 μM. As for the experimental part: (§1) The suppression of cell proliferation was further observed in the A549 and PC14 cells mentioned above for a long period. The observation was performed for 8 days under the culture conditions described above (both the mtDNA mutation cell line A549 and the PC14 cell line having no mutation were inoculated at 1×10^3 cells/well, cultured for 24 hours, and then treated with CCC021-TPP (final concentration: 20 μM)), and cell numbers were counted.

For experiment [4], the system named is A549 cells. The experiment is described as above. To be noted: 20 μM. The procedure:
as §1

For experiment [5], the system named is A549 cells. As to the kind of experiment: Expression of apoptosis-related factors by RT-qPCR. The settings on record: 5 days after treatment. As for the experimental part:
Accordingly, as for the maintenance of senescent cells by the circumvention of apoptosis as well as change in the expression of anti-apoptotic factors BCL-XL, BCL2, and survivin and an pro-apoptotic factor BAX by CCC021-TPP treatment, the cells were recovered 5 days after CCC021-TPP treatment as described above, and RNA extraction, RNA reverse-transcription, cDNA synthesis, and RT-qPCR were performed in the same manner as in Example 1 to examine the expression of apoptosis-related factors (BCL-XL, BCL2, survivin, and BAX) in the A549 cells and the PC14 cells. The primers used for the amplification of each gene are shown below. For qPCR, amplification was performed under conditions involving a holding stage of 50° C. for 2 min→95° C. for 10 min followed by 40 cycles of a cycling stage each involving 95° C. for 15 sec→60° C. for 1 min using Applied Biosystems(R) 7500 real-time PCR system, and melt curve analysis after amplification was conducted at a melt curve stage of 95° C. for 15 sec→60° C. for 1 min→95° C. for 15 sec→60° C. for 15 sec to confirm reaction specificity from the absence of primer dimer by-products or the like in PCR products.

Experiment [6] deals with PC14 cells. Kind of experiment: Trypan blue assay of live cell numbers. The settings on record: PC14, 7 days later. The procedure:
(§2) The A549 cells and the PC14 cells were inoculated at 5×10^3 cells/dish and 1×10^4 cells/dish, respectively, to 35 mm glass base dishes (IWAKI, Japan), cultured for 24 hours, and then treated with CCC021-TPP (final concentration: 20 μM). Further, 24 hours later, the culture solution was discarded, and a DMEM culture solution containing Mito Tracker(R) Red CMXRos (Life Technologies, USA) was added to attain 100 nM. 30 minutes later, the cells were washed twice with PBS, then fixed in 4% PFA for 30 minutes, then medium-replaced with PBS, preserved at 4° C., immunostained with the antibody by the method described in Example 1, and observed under confocal laser microscope SP8 (Leica, Germany). […] A549 and PC14 were each inoculated at 5×10^2 cells/well to 16 wells of a 96-well plate, cultured for 24 hours, and then treated with CCC021-TPP at 0, 1, 2, 5, 10, 25, and 50 μM each for 2 wells. 5 days later, the cells were reacted at room temperature for 2 hours using CytoSelect™ MTT Cell Proliferation Assay (Cosmo Bio Co., Ltd.), followed by the measurement of absorbance at 590 nm with SPECTRAFLUOR Plus (Tecan Group Ltd.) to conduct a rechallenge experiment of cell proliferation. […] 7 days later, as for change in the live cell numbers of the A549 cells and the PC14 cells, the live cell numbers were measured by trypan blue staining to experimentally examine cell survival rates.

Experiment [7] deals with A549 cells. As to the kind of experiment: Trypan blue assay of live cell numbers. The settings on record: A549, 7 days later. The procedure: as §2

On to `CN(C)CCCNC(=O)CCNC(=O)c1cc(NC(=O)c2cc(NC(=O)CCNC(=O)c3nc(NC(=O)c4cc(NC(=O)c5cc(NC(=O)CCNC(=O)CCCC[P+](c6ccccc6)(c6ccccc6)c6ccccc6)cn5C)cn4C)cn3C)cn2C)cn1C` [CCC021-TPP], for which, in the experiment with A549 cells [1], the “expression of IL-1A” value is recorded as “significantly increased expression”, the “expression of IL-6” value is “tendency to increase the expression” and the “expression of IL-8” value was “significantly increased expression”. In addition, in the experiment on A549 cells [2] (combined use of 20 μM CCC021-TPP and 10 μM ABT-263), the “cells that underwent apoptosis (morphology)” value is given as “cells that evidently underwent apoptosis were already found”. Also, in the experiment with A549 cells [2] (each used alone: 20 μM CCC021-TPP, 10 μM ABT-263), the “cells that underwent apoptosis (morphology)” value is reported as “not detected”. Besides, in the experiment with PC14 cells [3], the “cell number / proliferation” value is on record as “neither significant difference in cell number nor a cell proliferation suppressive effect was found”. Moreover, the “cell number / proliferation” value in the experiment on A549 cells [4] is “significant suppression of proliferation”. Moreover, in the experiment on A549 cells [5], the “expression of anti-apoptotic factor BCL-XL” value is “increased”, the “expression of pro-apoptotic factor BAX” value is “increased expression” and the expression of survivin entry is “decreased expression”. Also, the “viability (trypan blue)” value with PC14 cells [6] is listed as “no influence on the viability”. Also, the “viability (trypan blue)” value with A549 cells [7] is on record as “no influence on the viability”.
